Experimental data: patent publication US3980794A, “Method for promoting growth of poultry with 3-(5-nitro-2-imidazolyl)pyrazoles” (Eli Lilly and Company, priority 1975, dated 1976)
Converted amounts (≈) assume the structure as drawn. Read-outs that look alike come from different tables or passages of the source.

Experiments:
Format in all cases: cell-based
[1] = system: Fusobacterium symbiosum 1470; test: Susceptibility of anaerobic bacteria, agar dilution; conditions: read-out: 24 Hr. Minimum Inhibitory Concentration
[2] = system: Clostridium perfringens 81; test: microbe, parasite or virus in culture; conditions: Clostridium perfringens, 81, 24 h, read-out: 24 Hr. Minimum Inhibitory Concentration
[3] = system: Bacteroides fragilis sp. vulgatus 1211; test: Susceptibility of anaerobic bacteria, agar dilution; conditions: 24 h, read-out: 24 Hr. Minimum Inhibitory Concentration
[4] = system: Clostridium innocuum 1373; test: as above; conditions: read-out: 24 Hr. Minimum Inhibitory Concentration
Actinomyces bovis 13684 = test: as above; conditions: read-out: 24 Hr. Minimum Inhibitory Concentration
[5] = system: Clostridium septicum 1128; test: as above; conditions: 24 h, read-out: 24 Hr. Minimum Inhibitory Concentration
Description: (§1) The susceptibility of anaerobic bacteria, both gram positive and gram negative, to a representative number of the novel compounds of this application was determined using the agar dilution method. The bacteria used were isolated from patients hospitalized at the Indiana University Medical Center. The isolates were identified in the anaerobe laboratory of the Medical Center by the criteria established by Dowell et al., Laboratory Methods in Anaerobic Bacteriology. Public Health Serv. Publ. No. 1803 (1968) [Center for Disease Control, Atlanta, Ga.]; and by Smith et al., The Pathogenic Anaerobic Bacteria, pages 96-136 (1968) [Charles C. Thomas, Publisher, Springfield, Ill.]. All the organisms were maintained in chopped meat glucose medium (Scott Labs) at room temperature.
(§2) The method used for the agar dilution tests was based on the studies of Sutter et al., Antimicrob. Ag. Chemother. 3, 188-193 (1973). The strains of anaerobic bacteria were grown in 16 × 120 mm. tubes for 16 to 18 hours in Thioglycolate medium without indicator--135C (Becton, Dickinson and Co.), to which was added 5 mcg. of hemin per milliliter prior to autoclaving, plus 1 mg. of sodium bicarbonate and 0.1 mcg. of filter-sterilized menadione per milliliter after autoclaving. The growth tubes for the bacteria Veillonella alcalescens were additionally supplemented with 5 mg. of sodium lactate per milliliter. The strains were adjusted to the turbidity of the No. 1 McFarland standard in Thioglycolate medium without indicator--135C containing an additional 0.13 percent Bacto-agar (Difco). Each strain was then applied to the surface of the petri plate (100 mm. × 15 mm.) by means of a replicator.
(§3) For the agar dilution studies, two-fold dilutions of the test compounds were prepared in deionized water to which was then added laked sheep blood and filter-sterilized menadione so the concentrations after the agar dilution were 5 percent and 10 mcg./ml. respectively. An equal volume of double strength Brucella agar (Becton, Dickinson and Co.) was mixed with each dilution in a water bath held at 50°C. and then poured onto the petri plates.
(§4) All of the procedures were done inside a plastic glove box, except for the incubation of the growth tubes and the pouring of the plates. After the plates hardened, they were put inside the glove box for a minimum of two hours before they were inoculated. Generally, the glove box procedures of Aranki et al., Applied Microbiology 17, 568-576 (1969), were followed, but the following modifications were used. Dry materials were introduced into the glove box by evacuating the lock to 28 inches of mercury and filling once with nitrogen gas, followed by evacuating in the same manner and filling with an 80 percent nitrogen plus 10 percent CO2 plus 10 percent hydrogen gas mixture. Liquid media and agar plates were introduced into the glove box by evacuating the lock to 10 inches of mercury and filling with gas four times. The nitrogen gas was used to fill the lock for the first two cycles of evacuation, with the gas mixture described above used for the final two fillings.
(§5) All the plates were incubated at 37°C. in Gas Pak jars (Becton, Dickinson and Co.) containing palladium-coated alumina catalysts (reactivated after each use). The results of the agar dilution tests were read after about 24 hours of incubation. The minimum inhibitory concentration (MIC) was recorded as the lowest concentration of test compound at which there was no growth.
(§6) The results of these in vitro tests are recorded in Charts 11 and 12 which follow. The test compounds are identified in the same manner as in the previous experiments. The antibiotics cephalothin and erythromycin were also run simultaneously with the novel compounds of this application, for comparison purposes, and the results are included in Charts 11 and 12 below.

[6] = system: Clostridium septicum bovine; test: as above; conditions: 24 h, read-out: 24 Hr. Minimum Inhibitory Concentration
Description: as §1, §2, §3, §4, §5, §6

[7] = system: Propionibacterium acnes 79; test: as above; conditions: read-out: 24 Hr. Minimum Inhibitory Concentration
[8] = system: Bacteroides fragilis sp. fragilis 1936B; test: as above; conditions: 24 h, read-out: 24 Hr. Minimum Inhibitory Concentration
[9] = system: Bacteroides fragilis sp. fragilis 1877; test: as above; conditions: 24 h, read-out: 24 Hr. Minimum Inhibitory Concentration
[10] = system: Bacteroides fragilis sp. thetaiotaomicron 1438; test: as above; conditions: 24 h, read-out: 24 Hr. Minimum Inhibitory Concentration
[11] = system: Eubacterium aerofaciens 1235; test: as above; conditions: read-out: 24 Hr. Minimum Inhibitory Concentration
[12] = system: Fusobacterium necrophorum 13859; test: as above; conditions: read-out: 24 Hr. Minimum Inhibitory Concentration
[13] = system: Veillonella alcalescens 1; test: as above; conditions: read-out: 24 Hr. Minimum Inhibitory Concentration
[14] = system: Peptococcus anaerobius 1428; test: as above; conditions: 24 h, read-out: 24 Hr. Minimum Inhibitory Concentration
[15] = system: Bacteroides fragilis sp. vulgatus 1563; test: as above; conditions: 24 h, read-out: 24 Hr. Minimum Inhibitory Concentration
Clostridium ramosum 1313 = test: as above; conditions: read-out: 24 Hr. Minimum Inhibitory Concentration
[16] = system: Propionibacterium acnes 44; test: as above; conditions: read-out: 24 Hr. Minimum Inhibitory Concentration
[17] = system: Peptostreptococcus intermedius 1264; test: as above; conditions: read-out: 24 Hr. Minimum Inhibitory Concentration
[18] = Bacteroides fragilis sp. fragilis 1936B
[19] = Veillonella parvula, 24 h, Veillonella alcalescens 1
[20] = Bacteroides fragilis sp. vulgatus 1563
[21] = Thomasclavelia ramosa, 24 h, Clostridium ramosum 1313
[22] = Cutibacterium acnes, 24 h, Propionibacterium acnes 44
[23] = 24 h, Peptostreptococcus intermedius 1264
[24] = [Clostridium] innocuum, 1373, 24 h
[25] = Collinsella aerofaciens, 1235, 24 h
[26] = Fusobacterium necrophorum, 13859, 24 h
[27] = Thomasclavelia ramosa, 1313, 24 h

Row | Structure (SMILES) | MIC [2] [µg/mL] | MIC [5] [µg/mL] | MIC [6] [µg/mL] | MIC [8, 18] [µg/mL] | MIC (Clostridium ramosum 1313; [21]) [µg/mL] | MIC [16, 22] [µg/mL] | MIC [17, 23] [µg/mL] | MIC ([1]; Fusobacterium, 1470, 24 h) [µg/mL] | MIC ([3]; Bacteroides fragilis) [µg/mL] | MIC [4, 24] [µg/mL] | MIC (Actinomyces bovis 13684; Actinomyces bovis, 13684, 24 h) [µg/mL] | MIC ([7]; Cutibacterium acnes, 79, 24 h) [µg/mL] | MIC ([8]; Bacteroides fragilis) [µg/mL] | MIC ([9]; Bacteroides fragilis) [µg/mL] | MIC ([10]; Bacteroides fragilis) [µg/mL] | MIC [11, 25] [µg/mL] | MIC [12, 26] [µg/mL] | MIC ([13]; Veillonella parvula, 1, 24 h) [µg/mL] | MIC [14] [µg/mL] | MIC ([15]; Bacteroides fragilis) [µg/mL] | also measured
1 | CCNc1cc(-c2ncc([N+](=O)[O-])n2C)nn1C [Compound 11A, 5-(ethylamino)-1-methyl-3-(1-methyl-5-nitro-2-imidazolyl)pyrazole] | 0.03 (≈ 0.12 µM) | 0.06 (≈ 0.24 µM) | 0.06 (≈ 0.24 µM) | 2 (≈ 7.99 µM) | 0.5 (≈ 2 µM) | 8 (≈ 32 µM) | 8 (≈ 32 µM) | – | – | – | – | – | – | – | – | – | – | – | – | – | MIC ([1]; 24 h, Fusobacterium symbiosum 1470): < 0.03 µg/mL; MIC ([3]; Bacteroides fragilis sp. vulgatus 1211): < 0.03 µg/mL; MIC ([4]; 24 h, Clostridium innocuum 1373): 0.125 µg/mL (≈ 0.499 µM); MIC (Actinomyces bovis 13684; 24 h, Actinomyces bovis 13684): 2 µg/mL (≈ 7.99 µM); MIC ([7]; Cutibacterium acnes, 24 h, Propionibacterium acnes 79): < 0.03 µg/mL; MIC ([9]; Bacteroides fragilis sp. fragilis 1877): 0.06 µg/mL (≈ 0.24 µM); MIC ([10]; Bacteroides fragilis sp. thetaiotaomicron 1438): 0.06 µg/mL (≈ 0.24 µM); MIC ([11]; Collinsella aerofaciens, 24 h, Eubacterium aerofaciens 1235): < 0.03 µg/mL; MIC ([12]; 24 h, Fusobacterium necrophorum 13859): < 0.03 µg/mL; MIC [13, 19]: 1 µg/mL (≈ 4 µM); MIC ([14]; Peptococcus anaerobius 1428): 1 µg/mL (≈ 4 µM); MIC [15, 20]: < 0.03 µg/mL
2 | CNNC=Nc1c(C#N)c(-c2ncc([N+](=O)[O-])n2C)nn1C [Compound 21, N-[4-Cyano-1-methyl-3-(1-methyl-5-nitroimidazol-2-yl)pyrazol-5-yl]formimidic acid, 2-methyl hydrazide] | < 0.125 | < 0.125 | < 0.125 | – | – | 32 (≈ 106 µM) | 0.5 (≈ 1.65 µM) | < 0.125 | < 0.125 | < 0.125 | < 0.125 | < 0.125 | < 0.125 | < 0.125 | < 0.125 | < 0.125 | < 0.125 | < 0.125 | < 0.125 | < 0.125 | MIC (Clostridium ramosum 1313; [27]): < 0.125 µg/mL
3 | CCn1nc(-c2ncc([N+](=O)[O-])n2C)c(C#N)c1N [Compound 16, 5-Amino-1-ethyl-3-(1-methyl-5-nitro-2-imidazolyl)pyrazole-4-carbonitrile] | < 0.125 | < 0.125 | < 0.125 | 0.25 (≈ 0.957 µM) | – | > 32 | 2 (≈ 7.66 µM) | < 0.125 | < 0.125 | < 0.125 | < 0.125 | < 0.125 | – | < 0.125 | < 0.125 | < 0.125 | < 0.125 | < 0.125 | – | < 0.125 | MIC ([14]; Peptococcus anaerobius 1428): 1 µg/mL (≈ 3.83 µM); MIC (Clostridium ramosum 1313; [27]): < 0.125 µg/mL
4 | Cn1nc(-c2ncc([N+](=O)[O-])n2C)cc1N [Compound 3, 5-Amino-1-methyl-3-(1-methyl-5-nitro-2-imidazolyl)pyrazole] | < 0.125 | < 0.125 | < 0.125 | – | 4 (≈ 18 µM) | 0.5 (≈ 2.25 µM) | 16 (≈ 72 µM) | < 0.125 | < 0.125 | < 0.125 | < 0.125 | < 0.125 | < 0.125 | < 0.125 | < 0.125 | < 0.125 | < 0.125 | < 0.125 | < 0.125 | < 0.125 | –
5 | CC[C@H]1OC(=O)[C@H](C)[C@@H](O[C@H]2C[C@@](C)(OC)[C@@H](O)[C@H](C)O2)[C@H](C)[C@@H](O[C@@H]2O[C@H](C)C[C@H](N(C)C)[C@H]2O)[C@](C)(O)C[C@@H](C)C(=O)[C@H](C)[C@@H](O)[C@]1(C)O [Erythromycin, erythromycin, reference compound] | < 0.5 | 1 (≈ 1.36 µM) | < 0.5 | – | > 128 | – | – | < 0.5 | 2 (≈ 2.73 µM) | > 128 | 1 (≈ 1.36 µM) | < 0.5 | 4 (≈ 5.45 µM) | 4 (≈ 5.45 µM) | 4 (≈ 5.45 µM) | 1 (≈ 1.36 µM) | 2 (≈ 2.73 µM) | – | 1 (≈ 1.36 µM) | 2 (≈ 2.73 µM) | MIC [13, 19]: 1 µg/mL (≈ 1.36 µM); MIC ([16]; Cutibacterium acnes, 44, 24 h): < 0.5 µg/mL; MIC ([17]; Peptostreptococcus, 1264, 24 h): 8 µg/mL (≈ 10.9 µM)
6 | CN(C)C=Nc1c(C#N)c(-c2ncc([N+](=O)[O-])n2C)nn1C [Compound 9, 5-[[(Dimethylamino)methylene]amino]-1-methyl-3-(1-methyl-5-nitro-2-imidazolyl)pyrazole-4-carbonitrile] | < 0.125 | < 0.125 | < 0.125 | – | – | > 32 | > 32 | < 0.125 | < 0.125 | < 0.125 | < 0.125 | < 0.125 | < 0.125 | < 0.125 | < 0.125 | < 0.125 | < 0.125 | < 0.125 | < 0.125 | – | MIC [15, 20]: 0.25 µg/mL (≈ 0.827 µM); MIC (Clostridium ramosum 1313; [27]): < 0.125 µg/mL
7 | Cn1c([N+](=O)[O-])cnc1-c1nn(CCCl)c(N)c1C#N [Compound 15, 5-Amino-1-(2-chloroethyl)-3-(1-methyl-5-nitro-2-imidazolyl)pyrazole-4-carbonitrile] | < 0.125 | 0.25 (≈ 0.845 µM) | < 0.125 | 0.5 (≈ 1.69 µM) | 0.5 (≈ 1.69 µM) | > 32 | 8 (≈ 27.1 µM) | < 0.125 | < 0.125 | < 0.125 | – | < 0.125 | – | < 0.125 | < 0.125 | < 0.125 | < 0.125 | < 0.125 | – | < 0.125 | MIC (Actinomyces bovis 13684; 24 h, Actinomyces bovis 13684): 1 µg/mL (≈ 3.38 µM); MIC ([14]; Peptococcus anaerobius 1428): 1 µg/mL (≈ 3.38 µM)
